Data reported in patent US20040115742A1, “Method to identify specific interaction between ligand and receptor” (priority 2002, published 2004).

How the values were obtained:
[1] = molecular target: T1, erythropoietin receptor (EPOR, P19235) (Homo sapiens, UniProt P19235); test: cell-based ligand-lactamase fusion binding to cells expressing EPO receptor (CCF2 fluorescence); settings: for fluorescence readout, multiplexed pool of 12 receptors: EPOR in pool of 12 receptors; for fluorescence readout, multiplexed pool of 96 receptors: EPOR in pool of 96 receptors; for fluorescence readout, one on one receptor-ligand binding / fluorescence readout, multiplexed pool of 12 ligands / fluorescence readout, multiplexed pool of 96 ligands: EPOR; for fluorescence readout, one on one receptor-ligand binding: one to one, beta-lactamase reporter, CCF2 substrate
T1 construct: V5-His (from vector pcDNA3.1D/V5-His-TOPO); expressed in transfected cells
T1 sequence (P19235 25-508): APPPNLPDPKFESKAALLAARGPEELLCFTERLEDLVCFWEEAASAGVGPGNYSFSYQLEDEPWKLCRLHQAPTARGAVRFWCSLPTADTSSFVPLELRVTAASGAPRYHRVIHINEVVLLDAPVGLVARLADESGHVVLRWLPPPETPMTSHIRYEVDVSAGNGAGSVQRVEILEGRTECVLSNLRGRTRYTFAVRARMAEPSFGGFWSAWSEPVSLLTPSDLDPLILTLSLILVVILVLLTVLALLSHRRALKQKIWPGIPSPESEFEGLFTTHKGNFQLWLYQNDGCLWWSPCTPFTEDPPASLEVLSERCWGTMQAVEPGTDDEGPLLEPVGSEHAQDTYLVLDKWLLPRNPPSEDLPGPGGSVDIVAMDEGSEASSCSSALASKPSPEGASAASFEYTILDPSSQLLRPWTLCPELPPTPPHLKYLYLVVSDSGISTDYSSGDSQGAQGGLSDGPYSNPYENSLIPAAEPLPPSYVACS
Description: (§1) Cells transfected with plasmids expressing a ligand lactamase fusion and cells transiently or stably expressing receptor were independently cultured in multiple well (e.g., 96-well, 384-well, or 1536-well) plates. After growth, the culture medium of the cells transiently or stably expressing receptor was removed, and the culture medium of the cells expressing ligand lactamase fusion was added to the wells of cells stably expressing receptor. After the mixture was incubated at 4° C. for 1 hour, the medium was removed. The cells stably expressing receptor were washed three times with PBS containing 1% FBS (Invitrogen), and a lactamase substrate, such as CCF2 in […], was added to the washed cells in each well, and incubated. The fluorescence emission at 447 nm with excitation at 409 nm was measured using the Spectra Max Gemim (Molecular Devices) at different time points. The increase of fluorescence emission at 447 nm represented the lactamase activity of ligand fusion bound on the cell surface.
The EPO receptor and EPO, IL-8, and TNF ligand lactamase fusion proteins were expressed as described above. The EPO, IL-8, and TNF ligand lactamase fusions were contacted with the EPO receptor in duplicate experiments.
EPO, IL-8, and TNF receptors and ligands were expressed as described above. Known ligands, including the EPO ligand, were grouped to form a multiplexed pool of 12 ligands and a multiplexed pool of 96 ligands. Compared to the fluorescence readout for one on one receptor-ligand binding for EPO/EPOR (26398 arbitrary units), the fluorescence readout (and thus, binding) was less for EPO/IL-8R (−503) and EPO/TNFR (−1027).
EPO, IL-8, and TNF receptors and ligands were expressed as described above. Known receptors, including the EPO receptor, were grouped to form a multiplexed pool of 12 receptors and a multiplexed pool of 96 receptors. Compared to the fluorescence readout for one on one receptor-ligand binding for EPOR/EPO (26398 arbitrary units), the fluorescence readout (and thus, binding) was less for EPOR/IL-8 (−902) and EPOR/TNF (−1113.5).

[2] = molecular target: T2, interleukin-8 receptor A (IL8R, P25024) (Homo sapiens, UniProt P25024); test: cell-based ligand-lactamase fusion binding to cells expressing IL-8 receptor (CCF2 fluorescence); settings: for fluorescence readout, multiplexed pool of 12 receptors: IL-8R in pool of 12 receptors; for fluorescence readout, multiplexed pool of 96 receptors: IL-8R in pool of 96 receptors; for fluorescence readout, one on one receptor-ligand binding / fluorescence readout, multiplexed pool of 12 ligands / fluorescence readout, multiplexed pool of 96 ligands: IL-8R; for fluorescence readout, one on one receptor-ligand binding: one to one, beta-lactamase reporter, CCF2 substrate
T2 construct: V5-His (from vector pcDNA3.1D/V5-His-TOPO); expressed in transfected cells
T2 sequence (P25024 1-350): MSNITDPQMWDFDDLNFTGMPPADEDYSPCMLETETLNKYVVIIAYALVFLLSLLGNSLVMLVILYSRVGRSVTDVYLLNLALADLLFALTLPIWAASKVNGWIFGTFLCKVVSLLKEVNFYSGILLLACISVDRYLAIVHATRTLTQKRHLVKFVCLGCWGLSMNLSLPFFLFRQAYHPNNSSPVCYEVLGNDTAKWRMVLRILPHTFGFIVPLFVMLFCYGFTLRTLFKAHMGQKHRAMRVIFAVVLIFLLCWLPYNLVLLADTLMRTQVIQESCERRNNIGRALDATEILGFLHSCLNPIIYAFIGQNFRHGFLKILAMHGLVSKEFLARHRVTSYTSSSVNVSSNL
Description: as §1
The IL-8 receptor and IL-8, EPO, and TNF ligand lactamase fusion proteins were expressed as described above. The IL-8, EPO, and TNF ligand lactamase fusions were contacted with the IL-8 receptor in duplicate experiments.
EPO, IL-8, and TNF receptors and ligands were expressed as described above. Known ligands, including the IL-8 ligand, were grouped to form a multiplexed pool of 12 ligands and a multiplexed pool of 96 ligands.
EPO, IL-8, and TNF receptors and ligands were expressed as described above. Known receptors, including the IL-8 receptor, were grouped to form a multiplexed pool of 12 receptors and a multiplexed pool of 96 receptors.

[3] = molecular target: T3, tumor necrosis factor receptor 2 (TNFR, P20333) (Homo sapiens, UniProt P20333); test: cell-based ligand-lactamase fusion binding to cells expressing TNF receptor (CCF2 fluorescence); settings: for fluorescence readout, multiplexed pool of 12 receptors: TNFR in pool of 12 receptors; for fluorescence readout, multiplexed pool of 96 receptors: TNFR in pool of 96 receptors; for fluorescence readout, one on one receptor-ligand binding / fluorescence readout, multiplexed pool of 12 ligands / fluorescence readout, multiplexed pool of 96 ligands: TNFR; for fluorescence readout, one on one receptor-ligand binding: one to one, beta-lactamase reporter, CCF2 substrate
T3 construct: V5-His (from vector pcDNA3.1D/V5-His-TOPO); expressed in transfected cells
T3 sequence (P20333 23-461): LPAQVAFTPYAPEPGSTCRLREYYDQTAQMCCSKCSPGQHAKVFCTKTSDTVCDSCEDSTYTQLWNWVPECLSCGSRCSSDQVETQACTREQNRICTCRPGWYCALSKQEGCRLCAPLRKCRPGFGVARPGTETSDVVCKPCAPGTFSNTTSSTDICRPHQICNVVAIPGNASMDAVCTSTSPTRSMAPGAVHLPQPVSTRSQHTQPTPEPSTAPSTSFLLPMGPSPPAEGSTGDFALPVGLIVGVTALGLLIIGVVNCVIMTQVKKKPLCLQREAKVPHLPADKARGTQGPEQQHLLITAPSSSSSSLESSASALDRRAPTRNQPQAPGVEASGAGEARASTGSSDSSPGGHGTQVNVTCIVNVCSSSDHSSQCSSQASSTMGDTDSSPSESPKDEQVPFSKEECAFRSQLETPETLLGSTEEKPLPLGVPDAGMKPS
Description: as §1
The TNF receptor and TNF, EPO, and IL-8 ligand lactamase fusion proteins were expressed as described above. The TNF, EPO, and IL-8 ligand lactamase fusions were contacted with the TNF receptor in duplicate experiments.
EPO, IL-8, and TNF receptors and ligands were expressed as described above. Known ligands, including the TNF ligand, were grouped to form a multiplexed pool of 12 ligands and a multiplexed pool of 96 ligands. Compared to the fluorescence readout for one on one receptor-ligand binding for TNF/TNFR (32899 arbitrary units), the fluorescence readout (and thus, binding) was less for TNF/EPOR (−1113.5) and TNF/IL-8R (−814.5).
EPO, IL-8, and TNF receptors and ligands were expressed as described above. Known receptors, including the TNF receptor, were grouped to form a multiplexed pool of 12 receptors and a multiplexed pool of 96 receptors. Compared to the fluorescence readout for one on one receptor-ligand binding for TNFR/TNF (32899 arbitrary units), the fluorescence readout (and thus, binding) was less for TNFR/EPO (−1027) and TNFR/IL-8 (−1677).

[4] = duplicate experiments, in words

Row | Substance | fluorescence readout of the positive well (FIG. 6) ([1]; 96-well plate, cDNA expression library, multiplexing factor of 12, one out of 96 wells) | fluorescence readout, multiplexed pool of 12 receptors [1] [arbitrary units] | fluorescence readout, multiplexed pool of 96 receptors [1] [arbitrary units] | fluorescence readout, one on one receptor-ligand binding [1] [arbitrary units] | fluorescence readout, multiplexed pool of 12 ligands [1] [arbitrary units] | fluorescence readout, multiplexed pool of 96 ligands [1] [arbitrary units] | fluorescence readout of ligand binding with EPO receptor (FIG. 3) [1, 4] | fluorescence readout, multiplexed pool of 12 receptors [2] [arbitrary units] | fluorescence readout, multiplexed pool of 96 receptors [2] [arbitrary units] | fluorescence readout, one on one receptor-ligand binding [2] [arbitrary units] | fluorescence readout, multiplexed pool of 12 ligands [2] [arbitrary units] | fluorescence readout, multiplexed pool of 96 ligands [2] [arbitrary units] | fluorescence readout, multiplexed pool of 12 receptors [3] [arbitrary units] | fluorescence readout, multiplexed pool of 96 receptors [3] [arbitrary units] | fluorescence readout, one on one receptor-ligand binding [3] [arbitrary units] | fluorescence readout, multiplexed pool of 12 ligands [3] [arbitrary units] | fluorescence readout, multiplexed pool of 96 ligands [3] [arbitrary units] | fluorescence readout of ligand binding with IL-8 receptor (FIG. 3) [2, 4] | fluorescence readout of ligand binding with TNF receptor (FIG. 3) [3, 4]
1 | erythropoietin [EPO] | 13444 | 13570 | 1454 | 26398 | 13570 | 1454 | high fluorescence readout | −785 | −1334 | −503 | −785 | −1334 | −1598 | −1177 | −1027 | −1598 | −1177 |  | 
2 | interleukin-8 [IL-8] |  | −1059 | −1448 | −902 | −1059 | -1450 |  | 3785 | −476 | 16941 | 3785 | −476 | −1847 | −718 | −1677 | −147 | −718 | high fluorescence readout | 
3 | tumor necrosis factor alpha [TNF] |  | -1000 | −1634 | −1113.5 | −1005.5 | −1634 |  | −1275.5 | −381 |  | −1275.5 | −381 | 26974.5 | 6485.5 | 32899 | 26974.5 | 6485.5 |  | high fluorescence readout
